Like-named read-outs stand apart in the source and are kept apart here.
Key:
[1] = test system: HCT116 wt; assay: Viability of drug-sensitive parental HCT116 cells; format: cell-based; conditions: Homo sapiens, HCT-116, 72 h
Method: (§1) Viability is represented as percentage survival normalised to DMSO control. […] PCR reactions were carried out using Amplitaq Gold polymerase (Applied Biosystems N8080241) with a 25-cycle programme. […] Prepared samples were submitted for next generation sequencing using MiSeq Nano run with Nextera XT library preparation. Sequencing and subsequent bioinformatics were performed by Cambridge Genomic Services (University Of Cambridge).

[2] = test system: HCT116 BI 2536-Res. Clones; assay: Viability of BI 2536-resistant HCT116 clones; format: cell-based, human; conditions: Homo sapiens, HCT-116; BI2536-Res. (Mean), 72 h; read-out: GI50
Method: as §1

[3] = test system: HCT116 KRAS G13D cells; assay: Development of drug resistance under continuous treatment; format: cell-based, human; conditions: continuous treatment at 5x GI50
Method: HCT116 wild-type cells (Horizon Discovery Ltd.) cultured in McCoy's 5A (Life Technologies #26600) medium supplemented with 10% Foetal Calf Serum (Life Technologies #10270) were treated on three occasions with titrations of the PLK1 ATP-competitive inhibitor BI 2536 (Selleckchem #S1109) or Poloppin in order to determine the 2.5x GI50, 3x GI50 and 5x GI50 values for each compound required to initiate the development of resistance. Cells were subsequently treated with 2.5x GI50, 3x GI50 and 5x GI50 concentrations of either compound, changing media and compound every three to four days until resistant colonies emerged or no viable cells remained. Single cell clones were isolated from cells resistant to 5x GI50 BI 2536. Equivalent experiments using 3x GI50 or 2.5x GI50 doses of Poloppin or BI2536 yielded identical results (data not shown). BI 2536-resistant clones (HCT116 BI 2536-Res. Clones) were treated with BI2536 or Poloppin, alongside drug-sensitive parental HCT116 cells (HCT116 wt), and viability was assessed after 72 h. Viability is represented as percentage survival normalised to DMSO control. […]

[4] = test system: Panc-1; assay: Cell viability (SRB), Panc-1; format: cell-based, human; conditions: Panc-1, c-MET inhibitor alone, SRB 72 h, Figure S5C, read-out: EC50, % survival
Method: SW48 Parental, SW48 G12D, Panc-1, HPAF-II, Panc 02.03 and Panc 05.04 cell lines were seeded overnight at 5000 cells per well in a 96 well plate in recommended media (ATCC). Compounds were added the following day and viability was measured at 72h using the sulforhodamine B (SRB) colorimetric assay as follows. Cells were fixed by replacing media with 1% v/v Trichloroacetic Acid (TCA) (Sigma-Aldrich) at 4°C and incubated for 1h also at 4°C. Wells were washed thoroughly with copious amounts of deionised water before staining with Sulforhodamine B (SRB) (Sigma-Aldrich) solution (0.057% w/v in 1% v/v Acetic Acid (VWR)) for 30 min. Stain was aspirated and wells washed with several changes of 1% v/v Acetic Acid until unbound stain was removed, before air-drying. Bound stain was solubilized with 100μl / well 10mM Tris (pH 8.0) (Trizma Base (121.1) Sigma-Aldrich) with agitation for 10 min. Fluorescence intensity was recorded at Ex540nm / Em590nm using a BMG Pherastar Plus plate reader ([Vichai and Kirtikara, 2006]).
Pancreatic organoids were extracted and cultured as detailed above ([Boj et al., 2015]). In brief, pancreatic organoids were seeded at 600 cells per well in a 96 well plate and allowed to grow for 7 days with media replenishment on the 3rd day. Full-grown organoids were then treated with compounds for 72h and viability determined using CellTitre Glo 3D assay (Promega). For viability assays with c-MET siRNA, cells were reverse transfected in a 6 cm dish using Dharmafect 1 (GE Dharmacon) per manufacturer’s instructions. On the following day, cells were trypsinised and plated onto 96 well plates or 6 well plates. The 96 well plates were treated with a dose range of compounds or DMSO, and viability was determined via SRB colorimetric assay. Cells in the 6 well plates were collected at the end of experiment to corroborate knockdown of c-MET by Western blotting.
Cells were reverse-transfected with 50nM (SW48 parental, SW48 KRAS G12D and Panc-1) or 25nM (HeLa Flp-In T-REx parental cells) siRNA using Dharmafect (GE Dharmacon) as manufacturer’s recommendations. Where transfected cells were subsequently treated with compounds, the cells were allowed to settle overnight and then treated with compound at the indicated concentration the following day. Viability was assessed after 72 hrs, with the SRB colorimetric assay. Knockdown efficiencies were determined by Western blot or RT-qPCR. Oligos against the following target sequences were used. c-MET (Qiagen): […], […], […]. PLK1 (Qiagen): […]. PLK2 (SMARTpool; Dharmacon): ACACAGAAGGAGAACGAUA, CAUCAAUGAGGAUAGGAUA, CUGCCUAGUGUUACUGAUA, ACAAAGUCUACGCCGCAAA. PLK3 (SMARTpool; Dharmacon): GCGAGAAGAUCCUAAAUGA, GCAAGUGGGUUGACUACUC, GCACAUCCGUUGGCCAUCA, GACCUCAAGUUGGGAAAUU. PLK4 (Qiagen): […].

[5] = test system: HeLa cells; assay: Mitotic index assay in HeLa cells; format: cell-based, human; conditions: for EC50: Homo sapiens, HeLa, Figure 5A, read-out: MI EC50 (cellular assay for mitotic arrest)
Method: Cells were plated at 10 000/well in 96-well plates and incubated overnight. The following day compound stocks in DMSO were diluted in medium then added to cells with a maximum final DMSO concentration on cells of 0.2%. […] Cells were permeabilised with 0.1% Triton X-100 then incubated with anti-phospho-histone H3 (Ser10) antibody (Abcam ab5176). The cells were washed with PBS then incubated with AlexaFluor 488 labelled goat anti-rabbit IgG (Invitrogen A11034) in the presence of 4ug/ml Hoechst 33342 (Invitrogen H3570). Cells were washed in PBS then imaged on an Arrayscan VTi HCS instrument (Thermo Fisher) using the Target Activation V4 Bioapplication. A user-defined threshold was applied to identify mitotic cells based on the intensity of phospho-histone H3 staining.

[6] = molecular target: T1, NanoLuc-PLK4 fusion protein (Homo sapiens, UniProt O00444); assay: NanoLuc thermal shift assay; format: cell-based; conditions: compound at 100 μM
T1 construct: NanoLuc fused to the N-termini of full-length human PLK1, PLK2, PLK3, PLK4 or p38α MAPK; expressed in transfected cells; host or cells: HeLa, transient, digitonin-permeabilised
T1 sequence (O00444 1-970): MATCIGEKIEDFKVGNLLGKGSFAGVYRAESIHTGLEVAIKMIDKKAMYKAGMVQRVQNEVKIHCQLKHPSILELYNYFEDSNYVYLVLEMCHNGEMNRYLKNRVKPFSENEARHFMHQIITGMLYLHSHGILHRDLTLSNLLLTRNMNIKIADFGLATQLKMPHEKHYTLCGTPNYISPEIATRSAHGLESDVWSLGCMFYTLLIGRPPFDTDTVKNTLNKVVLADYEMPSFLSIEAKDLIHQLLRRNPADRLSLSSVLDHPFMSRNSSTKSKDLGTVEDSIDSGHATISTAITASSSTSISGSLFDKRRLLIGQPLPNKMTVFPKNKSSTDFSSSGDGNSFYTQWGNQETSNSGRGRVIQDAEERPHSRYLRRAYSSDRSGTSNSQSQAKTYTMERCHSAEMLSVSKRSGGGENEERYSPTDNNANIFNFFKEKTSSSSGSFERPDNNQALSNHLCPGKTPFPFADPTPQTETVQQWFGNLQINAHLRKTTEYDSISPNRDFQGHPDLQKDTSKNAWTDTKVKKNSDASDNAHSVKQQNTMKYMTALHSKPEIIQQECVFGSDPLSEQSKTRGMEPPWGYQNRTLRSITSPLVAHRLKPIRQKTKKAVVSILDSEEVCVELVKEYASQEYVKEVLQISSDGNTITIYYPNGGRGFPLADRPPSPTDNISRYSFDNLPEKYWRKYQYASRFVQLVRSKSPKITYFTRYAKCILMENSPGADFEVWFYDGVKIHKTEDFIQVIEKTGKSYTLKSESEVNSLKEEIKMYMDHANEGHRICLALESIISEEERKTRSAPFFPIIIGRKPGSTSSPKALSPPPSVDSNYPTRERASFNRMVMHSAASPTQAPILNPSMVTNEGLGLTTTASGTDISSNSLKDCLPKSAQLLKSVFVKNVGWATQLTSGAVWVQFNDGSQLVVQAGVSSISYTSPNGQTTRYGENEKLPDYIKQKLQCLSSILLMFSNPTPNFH
Method: (§2) HeLa cells were transfected with plasmids encoding NanoLuc fused to the N-termini of full-length human PLK1, PLK2, PLK3, PLK4 or p38α MAPK. Twenty-four h after transfection, the thermal stability of the fusion proteins was tested using a modified version of the assay protocol supplied by Promega. Briefly, cells were harvested by tyrpsinisation and centrifugation, counted, and resuspended to 200,000 cells/ml in 3mls of serum-free OptiMEM media. Cells were then permeabilised using with 50ug/ml digitonin in DMSO for 5 min and incubated with test compounds at 100uM, plus protease inhibitor cocktail (Promega G6521), in a final concentration of 5% DMSO for 1 h at 37°C. After incubation, 100 μl/well of cells were aliquoted into a 96-well, thin-walled PCR plate and then heated for 3 minutes using a pre-warmed MJ Tetrad DNA Engine set to run a temperature gradient of 42 to 66°C. The plates were then cooled to room temperature for 10 min, and then 80μl of each sample was transferred to a white-walled 96-well Nunc plate before NanoBRET™ NanoGlo Substrate diluted in Opti-MEM was added. NanoLuc enzyme activity was read out within 10 min using a BMG Clariostar plate reader.
(§3) Nanoluciferase enzyme activity of PLK1- or PLK4-Nanoluc fusion protein was analysed using GraphPad Prism. Data were normalised as follows: (treatment A RLU value at X°C temp/treatment A RLU value at 42°C temp) x 100. Using the Boltzmann sigmoidal equation, a curve was then fitted to the normalised data. From this non-linear fit, a V50 value was generated, which in this context represents the aggregation onset temperature (Tagg), at which 50% of the PLK1- or PLK4-Nanoluc fusion protein has aggregated.

[7] = molecular target: T2, NanoLuc-PLK1 fusion protein (Homo sapiens, UniProt P53350); assay: NanoLuc thermal shift assay; format: cell-based; conditions: compound at 100 μM
T2 construct: NanoLuc fused to the N-termini of full-length human PLK1, PLK2, PLK3, PLK4 or p38α MAPK; expressed in transfected cells; host or cells: HeLa, transient, digitonin-permeabilised
Method: as §2, §3

[8] = molecular target: T3, PLK1-PBD(345-603), Polo-box domain of human Polo-like kinase 1 (human, UniProt P53350 345-603); assay: fluorescence polarisation; competition format: TAMRA-labelled phosphopeptide 10 nM, PBD 84 nM (2.5 ng/ul), PBS pH 7.4 plus 0.03% tween; compound and PBD incubated together at 22 C for 1 hour before the peptide was added; same procedure for PLK2 PBD with its own peptide; conditions: both partners purified
T3 construct: Polo-like kinase 1 (PLK1), human, Polo-box domain, residues 345-603; also called PLK1 PBD (aa345-603); PBDaa345-603; source: E. coli C41, purified (GST-Sepharose column, cleaved on column with PreScission protease, gel chromatography)
T3 sequence (P53350 345-603): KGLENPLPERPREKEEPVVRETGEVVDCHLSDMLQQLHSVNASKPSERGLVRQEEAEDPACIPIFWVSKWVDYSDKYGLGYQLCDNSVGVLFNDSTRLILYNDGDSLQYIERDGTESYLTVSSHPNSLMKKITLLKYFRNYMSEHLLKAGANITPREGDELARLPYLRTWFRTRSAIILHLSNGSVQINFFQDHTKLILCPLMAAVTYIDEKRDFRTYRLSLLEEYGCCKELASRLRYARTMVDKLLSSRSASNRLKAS

T2 sequence (P53350 whole entry, the tested form may be a part): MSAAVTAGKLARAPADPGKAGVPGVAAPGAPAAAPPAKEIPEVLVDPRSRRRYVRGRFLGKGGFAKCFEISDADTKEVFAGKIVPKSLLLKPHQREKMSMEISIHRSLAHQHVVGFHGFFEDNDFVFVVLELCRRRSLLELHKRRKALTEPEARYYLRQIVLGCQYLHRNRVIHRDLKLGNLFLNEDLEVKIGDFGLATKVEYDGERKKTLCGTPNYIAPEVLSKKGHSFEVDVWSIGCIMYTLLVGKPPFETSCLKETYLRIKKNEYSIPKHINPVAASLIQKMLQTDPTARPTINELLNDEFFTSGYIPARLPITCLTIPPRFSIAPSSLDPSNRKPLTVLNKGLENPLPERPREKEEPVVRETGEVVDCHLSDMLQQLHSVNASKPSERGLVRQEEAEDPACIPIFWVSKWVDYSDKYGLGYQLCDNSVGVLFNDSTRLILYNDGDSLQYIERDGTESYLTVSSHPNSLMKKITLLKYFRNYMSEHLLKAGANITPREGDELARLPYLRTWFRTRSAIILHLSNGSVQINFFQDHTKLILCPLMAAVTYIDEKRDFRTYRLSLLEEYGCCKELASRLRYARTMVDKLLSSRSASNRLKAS

With `CC[C@@H]1C(=O)N(C)c2cnc(Nc3ccc(C(=O)NC4CCN(C)CC4)cc3OC)nc2N1C1CCCC1` [BI2536, reference compound] the GI50 [1] was 8.25 nM, the GI50 [2] was 30.9 nM and the “acquisition of drug resistance” value [3] was “readily acquire resistance”.

Molecule `COc1cc2c(Oc3ccc(NC(=O)C4(C(=O)Nc5ccc(F)cc5)CC4)cc3F)ccnc2cc1OCCCN1CCOCC1` [Foretinib] has an EC50 ([4]; Homo sapiens) of 2600 ± 1040 nM.

With `Cc1cc(Cl)ccc1-n1c(CCC(=O)N(C)C)ccc1-c1ccc(Br)cc1` [PB114] the “EC50, mitotic index assay” value ([5]; HeLa cells treated for 16 hr, Figure 5B) was “inactive”, the “thermal stability of NanoLuc-PLK4” value [6] was “less active” and the “thermal stability of NanoLuc-PLK1” value [7] was “less active”.

Work on `O=C1NC(=O)C(c2cn3c4c(cccc24)CCC3)C1c1c[nH]c2ccccc12` (centres unmarked) [Tivatinib] yielded an EC50 [4] of 1200 ± 1030 nM.

`CN(C)CCNC(=O)c1cccc(-c2ccc(-c3ccc(Br)cc3)n2-c2ccccc2C(F)(F)F)c1` [compound 4] gave an EC50 [5] of 580 nM.

In the case of `CN(C)CCNC(=O)c1ccc(-c2ccc(-c3ccc(Br)cc3)n2-c2ccccc2C(F)(F)F)cc1` [compound 5], the EC50 [5] is reported as 360 nM.

B1: TAMRA-labelled consensus PLK1 PBD binding phosphopeptide, 5-TAMRA-MAGPMQS(pThreonine)PLMGAKK-acid (peptide)
peptide: MAGPMQSTPLMGAKK
modifications: not fully specified; 5-TAMRA on the N-terminus; phosphothreonine (pThreonine) after MAGPMQS, residue 8 of the letters; C-terminal acid
notes: also called TAMRA-labeled substrate peptide
B1: binds [8].

Source: article PMC5563081, “Modulating Protein-Protein Interactions of the Mitotic Polo-like Kinases to Target Mutant KRAS” (Cell Chemical Biology, 2017)
